Source: BindingDB's records for patent US11185100 (MARS, INCORPORATED, 2021)

Tests used:
[1] = molecular target: T1, G-protein coupled receptors family 3 profile domain-containing protein (Felis catus, UniProt A0ABI7Z2I4); assay: Activation of T1R1/T1R3 Receptor by Nucleotide Derivatives (alanine)
Description: The concentration of alanine is 20 mM.
Target sequence in this assay (A0ABI7Z2I4 1-770): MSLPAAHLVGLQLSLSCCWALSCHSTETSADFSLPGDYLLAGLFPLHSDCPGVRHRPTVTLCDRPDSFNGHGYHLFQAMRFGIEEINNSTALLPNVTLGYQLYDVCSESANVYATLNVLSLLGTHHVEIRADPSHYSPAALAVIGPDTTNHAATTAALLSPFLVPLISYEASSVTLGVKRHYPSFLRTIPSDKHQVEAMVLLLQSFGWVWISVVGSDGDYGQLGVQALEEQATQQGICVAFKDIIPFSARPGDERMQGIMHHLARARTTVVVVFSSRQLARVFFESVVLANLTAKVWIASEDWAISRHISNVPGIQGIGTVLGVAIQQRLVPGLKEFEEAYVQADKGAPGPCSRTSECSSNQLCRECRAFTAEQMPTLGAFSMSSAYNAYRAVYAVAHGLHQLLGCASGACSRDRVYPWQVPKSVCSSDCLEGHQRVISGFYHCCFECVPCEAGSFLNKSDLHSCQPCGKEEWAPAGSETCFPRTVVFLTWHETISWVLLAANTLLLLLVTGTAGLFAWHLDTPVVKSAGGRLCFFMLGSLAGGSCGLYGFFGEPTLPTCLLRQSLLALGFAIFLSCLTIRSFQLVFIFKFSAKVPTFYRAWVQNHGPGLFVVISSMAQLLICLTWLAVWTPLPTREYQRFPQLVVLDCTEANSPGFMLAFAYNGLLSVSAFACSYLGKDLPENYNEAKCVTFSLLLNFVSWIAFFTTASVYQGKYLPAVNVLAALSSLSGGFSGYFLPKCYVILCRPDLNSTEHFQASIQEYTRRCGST

[2] = molecular target: T1, G-protein coupled receptors family 3 profile domain-containing protein; assay: Activation of T1R1/T1R3 Receptor by Nucleotide Derivatives
Excerpt: HEK293 cells that stably express T1R3 and inducibly express T1R1 were exposed to nucleotide derivatives alone to activate the umami receptor. Activation of the T1R1/T1R3 receptor was detected by a change in intracellular calcium levels using a calcium sensitive fluorescent dye. Cells that express T1R3 but not T1R1 were used as a control. A FLIPR Tetra or a FlexStation 3 was used for data capture.

SMILES | EC50 [1] | EC50 [2]
CC1(O)[C@](C)(n2cnc3c(N)ncnc32)O[C@](C)(COP(O)(O)=S)[C@]1(C)O (stereo partly drawn) [US11185100, TABLE 6.6] | 60 µM | –
Nc1ncnc2c1ncn2[C@@H]1O[C@H](COP(=O)(O)O)[C@@H](OP(=O)(O)O)[C@H]1O [US11185100, TABLE 7.1] | – | > 30 µM
CC1(O)[C@@](C)(COP(O)(O)=S)O[C@@](C)(n2cnc3c(N)ncnc32)[C@@]1(C)O (stereo partly drawn) [US11185100, TABLE 7.9] | 60 µM | –
